Key:
Assay type in all cases: functional, cell-based
HCT-116 = experiment: Antiproliferative activity against human HCT-116 cells assessed as reduction in cell viability incubated for 24 hrs by MTT assay; settings: HCT-116, 24 h
HepG2 = experiment: Antiproliferative activity against human HepG2 cells assessed as reduction in cell viability incubated for 24 hrs by MTT assay; settings: HepG2, 24 h
HT-29 = experiment: Antiproliferative activity against human HT-29 cells assessed as reduction in cell viability incubated for 24 hrs by MTT assay; settings: HT-29, 24 h
MCF7 = experiment: Antiproliferative activity against human MCF7 cells assessed as reduction in cell viability incubated for 24 hrs by MTT assay; settings: MCF7, 24 h

Compound | IC50 (HCT-116) [µM] | IC50 (HepG2) [µM] | IC50 (HT-29) [µM] | IC50 (MCF7) [µM]
CC(=O)O[C@H]1C=C([C@H](C)[C@H]2CC(C)=C(C)C(=O)O2)[C@@]2(C)CC[C@H]3[C@@H](C[C@H]4O[C@]45[C@@H](OC(=O)N4CCCC4)C=CC(=O)[C@]35C)[C@]12O | 0.89 | 1.23 | 1.12 | 2.14
CCO/C=C/C(=O)O[C@H]1C=CC(=O)[C@]2(C)[C@H]3CC[C@]4(C)C([C@H](C)[C@H]5CC(C)=C(C)C(=O)O5)=C[C@H](OC(C)=O)[C@@]4(O)[C@@H]3C[C@H]3O[C@]132 | 0.67 | 0.57 | 0.59 | 1.21
CC(=O)O[C@H]1[C@@H]2O[C@]2([C@H](C)[C@H]2CC(C)=C(C)C(=O)O2)[C@@]2(C)CC[C@H]3[C@@H](C[C@H]4O[C@]45[C@@H](O)C=CC(=O)[C@]35C)[C@]12O | 5.04 | 4.66 | 4.55 | 9.36
CC(=O)O[C@H]1C=C([C@H](C)[C@H]2CC(C)=C(C)C(=O)O2)[C@@]2(C)CC[C@H]3[C@@H](C[C@H]4O[C@]45[C@@H](OC(=O)N4CCCCC4)C=CC(=O)[C@]35C)[C@]12O | 0.73 | 0.41 | 1.38 | 4.31
CC(=O)O[C@H]1C=C([C@H](C)[C@H]2CC(C)=C(C)C(=O)O2)[C@@]2(C)CC[C@H]3[C@@H](C[C@H]4O[C@]45[C@@H](O)C(N(C)CC(=O)O)CC(=O)[C@]35C)[C@]12O (stereo not given in full) | > 20 | > 20 | > 20 | > 20
CC(=O)O[C@H]1C=C([C@H](C)[C@H]2CC(C)=C(C)C(=O)O2)[C@@]2(C)CC[C@H]3[C@@H](C[C@H]4O[C@]45[C@@H](OC(=O)/C=C/c4cccs4)C=CC(=O)[C@]35C)[C@]12O | 0.38 | 0.53 | 0.43 | 0.63
CC(=O)O[C@H]1C=C([C@H](C)[C@H]2CC(C)=C(C)C(=O)O2)[C@@]2(C)CC[C@H]3[C@@H](C[C@H]4O[C@]45[C@@H](OC(=O)/C=C/c4ccccc4)C=CC(=O)[C@]35C)[C@]12O | 1.23 | 0.7 | 0.77 | 1.71
CC(=O)O[C@H]1C=C([C@H](C)[C@H]2CC(C)=C(C)C(=O)O2)[C@@]2(C)CC[C@H]3[C@@H](C[C@H]4O[C@]45[C@@H](OC(=O)/C=C/C(=O)N(C(C)C)C(C)C)C=CC(=O)[C@]35C)[C@]12O | 0.35 | 0.36 | 0.19 | 0.62
CC(=O)O[C@H]1C=C([C@H](C)[C@H]2CC(C)=C(C)C(=O)O2)[C@@]2(C)CC[C@H]3[C@@H](C[C@H]4O[C@]45[C@@H](OC(=O)C(CC(C)C)NC(=O)OC(C)(C)C)C=CC(=O)[C@]35C)[C@]12O (stereo not given in full) | 0.33 | 0.52 | 0.78 | 1.06
CC(=O)O[C@H]1C=C([C@H](C)[C@H]2CC(C)=C(C)C(=O)O2)[C@@]2(C)CC[C@H]3[C@@H](C[C@H]4O[C@]45[C@@H](O)C(n4ccnc4)CC(=O)[C@]35C)[C@]12O (stereo not given in full) | > 20 | > 20 | > 20 | > 20
CC(=O)O[C@H]1C=C([C@H](C)[C@H]2CC(C)=C(C)C(=O)O2)[C@@]2(C)CC[C@H]3[C@@H](C[C@H]4O[C@]45[C@@H](OC(=O)/C=C/c4ccc(F)cc4)C=CC(=O)[C@]35C)[C@]12O | 1.03 | 0.61 | 0.72 | 1.58
CC(=O)O[C@H]1C=C([C@H](C)[C@H]2CC(C)=C(C)C(=O)O2)[C@@]2(C)CC[C@H]3[C@@H](C[C@H]4O[C@]45[C@@H](OC(=O)C(NC(=O)OC(C)(C)C)C(C)C)C=CC(=O)[C@]35C)[C@]12O (stereo not given in full) | 0.6 | 1.57 | 0.8 | 3.05
CC(=O)O[C@H]1C=C([C@H](C)[C@H]2CC(C)=C(C)C(=O)O2)[C@@]2(C)CC[C@H]3[C@@H](C[C@H]4O[C@]45[C@@H](OC(=O)C=C(C)C)C=CC(=O)[C@]35C)[C@]12O | 0.28 | 0.26 | 0.46 | 0.75
CC(=O)O[C@H]1C=C([C@H](C)[C@H]2CC(C)=C(C)C(=O)O2)[C@@]2(C)CC[C@H]3[C@@H](C[C@H]4O[C@]45[C@@H](OC(=O)c4cccs4)C=CC(=O)[C@]35C)[C@]12O | 3.87 | 2.91 | 2.39 | 4.08
C/C=C/C=C/C(=O)O[C@H]1C=CC(=O)[C@]2(C)[C@H]3CC[C@]4(C)C([C@H](C)[C@H]5CC(C)=C(C)C(=O)O5)=C[C@H](OC(C)=O)[C@@]4(O)[C@@H]3C[C@H]3O[C@]132 | 1.35 | 1.52 | 1.42 | 2.62
CCN(CC)C(=O)/C=C/C(=O)O[C@H]1C=CC(=O)[C@]2(C)[C@H]3CC[C@]4(C)C([C@H](C)[C@H]5CC(C)=C(C)C(=O)O5)=C[C@H](OC(C)=O)[C@@]4(O)[C@@H]3C[C@H]3O[C@]132 | 0.25 | 0.31 | 0.3 | 0.45
CC(=O)O[C@H]1C=C([C@H](C)[C@H]2CC(C)=C(C)C(=O)O2)[C@@]2(C)CC[C@H]3[C@@H](C[C@H]4O[C@]45[C@@H](OC(=O)CNC(=O)OC(C)(C)C)C=CC(=O)[C@]35C)[C@]12O | 0.47 | 0.64 | 0.63 | 2.16
CC(=O)O[C@H]1C=C([C@H](C)[C@H]2CC(C)=C(C)C(=O)O2)[C@@]2(C)CC[C@H]3[C@@H](C[C@H]4O[C@]45[C@@H](OC(=O)N(C)C)C=CC(=O)[C@]35C)[C@]12O | 0.67 | 1.06 | 1.01 | 2.1
CC(=O)O[C@H]1C=C([C@H](C)[C@H]2CC(C)=C(C)C(=O)O2)[C@@]2(C)CC[C@H]3[C@@H](C[C@H]4O[C@]45[C@@H](OC(C)=O)C=CC(=O)[C@]35C)[C@]12O | 0.6 | 1.57 | 0.8 | 3.05
CC(=O)O[C@H]1C=C([C@H](C)[C@H]2CC(C)=C(C)C(=O)O2)[C@@]2(C)CC[C@H]3[C@@H](C[C@H]4O[C@]45C(=O)C=CC(=O)[C@]35C)[C@]12O | 3.11 | 6.05 | 3.5 | > 20
CC(=O)O[C@H]1C=C([C@H](C)[C@H]2CC(C)=C(C)C(=O)O2)[C@@]2(C)CC[C@H]3[C@@H](C[C@H]4O[C@]45[C@@H](OC(=O)/C=C/c4cccc(C(F)(F)F)c4)C=CC(=O)[C@]35C)[C@]12O | 0.65 | 0.42 | 0.81 | 1.39
CC(=O)O[C@H]1C=C([C@H](C)[C@H]2CC(C)=C(C)C(=O)O2)[C@@]2(C)CC[C@H]3[C@@H](C[C@H]4O[C@]45[C@@H](O[Si](C)(C)C(C)(C)C)C=CC(=O)[C@]35C)[C@]12O | 1.77 | 3.01 | 1.06 | 6.14
C/C=C/C(=O)O[C@H]1C=CC(=O)[C@]2(C)[C@H]3CC[C@]4(C)C([C@H](C)[C@H]5CC(C)=C(C)C(=O)O5)=C[C@H](OC(C)=O)[C@@]4(O)[C@@H]3C[C@H]3O[C@]132 | 0.23 | 0.3 | 0.37 | 0.53
CC(=O)O[C@H]1C=C([C@H](C)[C@H]2CC(C)=C(C)C(=O)O2)[C@@]2(C)CC[C@H]3[C@@H](C[C@H]4O[C@]45[C@@H](OC(=O)/C=C/C(=O)N4CCCC4)C=CC(=O)[C@]35C)[C@]12O | 0.2 | 0.29 | 0.25 | 0.38
CCC(=O)O[C@H]1C=CC(=O)[C@]2(C)[C@H]3CC[C@]4(C)C([C@H](C)[C@H]5CC(C)=C(C)C(=O)O5)=C[C@H](OC(C)=O)[C@@]4(O)[C@@H]3C[C@H]3O[C@]132 | 0.57 | 1.66 | 1.08 | 4.81
CCN(C)C(=O)O[C@H]1C=CC(=O)[C@]2(C)[C@H]3CC[C@]4(C)C([C@H](C)[C@H]5CC(C)=C(C)C(=O)O5)=C[C@H](OC(C)=O)[C@@]4(O)[C@@H]3C[C@H]3O[C@]132 | 1.97 | 2.37 | 1.78 | 1.79
CCOC(=O)/C=C/C(=O)O[C@H]1C=CC(=O)[C@]2(C)[C@H]3CC[C@]4(C)C([C@H](C)[C@H]5CC(C)=C(C)C(=O)O5)=C[C@H](OC(C)=O)[C@@]4(O)[C@@H]3C[C@H]3O[C@]132 | 0.25 | 0.24 | 0.23 | 0.28
CC(=O)O[C@H]1C=C([C@H](C)[C@H]2CC(C)=C(C)C(=O)O2)[C@@]2(C)CC[C@H]3[C@@H](C[C@H]4O[C@]45[C@@H](OC(=O)N4CCOCC4)C=CC(=O)[C@]35C)[C@]12O | 0.78 | 0.67 | 0.99 | 3.89
CC(=O)O[C@H]1C=C([C@H](C)[C@H]2CC(C)=C(C)C(=O)O2)[C@@]2(C)CC[C@H]3[C@@H](C[C@H]4O[C@]45[C@@H](OC(=O)/C=C/C(=O)N4CCCCC4)C=CC(=O)[C@]35C)[C@]12O | 0.16 | 0.31 | 0.37 | 0.61
C=C(C)C(=O)O[C@H]1C=CC(=O)[C@]2(C)[C@H]3CC[C@]4(C)C([C@H](C)[C@H]5CC(C)=C(C)C(=O)O5)=C[C@H](OC(C)=O)[C@@]4(O)[C@@H]3C[C@H]3O[C@]132 | 1.34 | 1.45 | 1.12 | 2.11
